In patent US20250313546A1, “NUCLEIC ACID BINDERS” (UNIVERSITY OF STRATHCLYDE, priority 2022, published 2025):
In brackets after ≈: the same amount, converted by molar mass.

Tests used:
[1] = tested on: PolyAU double stranded RNA; assay: Fluorescence intercalator displacement (FID) assay, SYBR-safe probe; conditions: 20 μM compound, 30° C., lower % = stronger binding
Outline: (§1)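 Probe displacement was measured at 30 °C in 1 mM phosphate pH 7.4 containing SybrSafe (12500-fold dilution), 3.76 ng/mL nucleic acid (salmon dsDNA or polyAU dsRNA) and 20 μM compound. Fluorescence loss is normalised between probe-only and probe-plus-nucleic-acid controls.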

[2] = tested on: Genomic double stranded DNA (salmon); assay: as above; conditions: 20 μM compound, 30° C., lower % = stronger binding
Outline: as §1

T. evansi AntTat 3/3 = assay: Resazurin-based (Alamar blue) drug sensitivity assay; conditions: read-out: IC50 T. evansi
Procedure: (§2) A detailed description of the procedure for evaluating activity against trypanosomes, using an Alamar Blue (resazurin) assay, is described below.
(§3) The bloodstream form (BSF) T. b. brucei s427 (see De Koning, H. P. et al., Mol. Biochem. Parasitol. 2000, 106, 181-185), T. evansi AntTat 3/3 (see Dean, S. et al., Proc. Natl. Acad. Sci. USA, 2013, 110, 14741-14746), and T. equiperdum (see Stewart, M. L. et al., Eukaryot. Cell, 2010, 9, 336-343) were cultured in HMI-9 medium (Life Technologies, Paisley, United Kingdom) supplemented with 10% heat inactivated Foetal Bovine Serum (FBS (PAA Laboratories Linz, Austria)), 14 μL/L β-mercaptoethanol (BDH, Dorset, UK), and 3.0 g/L NaHCO3 (Sigma-Aldrich) and adjusted to pH 7.4. These cell lines were maintained at 37° C. in a humidified, 5% CO2 environment.
(§4) A resazurin-based (Alamar blue) drug sensitivity assay was used to assess and compare the activity of standard trypanocides in the different cell lines investigated (see Gould, M. K. et al., Anal. Biochem., 2008, 382, 87-93). Briefly, 23 doubling dilutions of the test compound of the invention, starting at 100 μM, and a compound-free control were prepared in 100 μL medium in a 96-well white plate (Greiner Bio-one, Frickenhausen, Germany). The cells were adjusted to 2×10^4 cells/mL for T. b. brucei and T. equiperdum; 4×10^4 cells/mL for T. evansi; and 5×10^5 cells/mL for T. congolense in the appropriate medium. 100 μL of the adjusted cells was then added to the wells containing drug dilutions and incubated for 48 h under respective culture condition. Thereafter, 20 μL of 125 mg/mL resazurin sodium dye was added, and the plate was incubated for a further 24 h.

[3] = tested on: Rhizopus arrhizus (NEQAS12.35321); conditions: read-out: MIC99 Rhizopus arrhizus
Candida auris (H.17.157) = conditions: for MIC99: Candidozyma auris, read-out: MIC99 Candida auris; for C. auris Selectivity Indices, Group: Alkyl Amidines and NH Pyrroles
[4] = tested on: Enterococcus faecalis (ATCC 51299); assay: Antibacterial MIC, broth microdilution (CLSI); assay type: cell-based; conditions: for MIC80: Enterococcus faecalis, ATCC51299, read-out: MIC80 E. faecalis; for E. faecalis Selectivity Indices, Group / E. faecalis Selectivity Index (SI): SI, IC50 (μM)/MIC80 (μM), HEK293 cytotoxicity; for E. faecalis Selectivity Index (SI): numeric value
[5] = tested on: Candida glabrata (ACPF3309); conditions: for MIC99: Nakaseomyces glabratus, read-out: MIC99 Candida glabrata; for C. glabrata Selectivity Indices, Group: Alkyl Amidines and NH Pyrroles
Procedure: The Minimum Inhibitory Concentration (MIC, at 99% inhibition) of the compounds was determined using the broth microdilution method as recommended by EUCAST (EUCAST Definitive Document E.DEF 9.3.2, Method for the determination of broth dilution minimum inhibitory concentrations of antifungal agents for conidia forming moulds and EUCAST Definitive Document E.DEF 7.3.2 Method for the determination of broth dilution minimum inhibitory concentrations of antifungal agents for yeasts).

C. neoformans (F10025) = conditions: Cryptococcus neoformans, read-out: MIC99 C. neoformans
T. equiperdum = assay: Resazurin-based (Alamar blue) drug sensitivity assay; conditions: Trypanosoma equiperdum, read-out: IC50 T. equiperdum
Procedure: as §2, §3, §4

[6] = tested on: A. fumigatus A1160 (MFIG001); conditions: Aspergillus fumigatus, read-out: MIC99 A. fumigatus A1160
[7] = tested on: Staphylococcus aureus (ATCC 43300); assay: Antibacterial MIC, broth microdilution (CLSI); assay type: cell-based; conditions: for S. aureus Selectivity Indices, Group / S. aureus Selectivity Index (SI): SI, IC50 (μM)/MIC80 (μM), HEK293 cytotoxicity; for S. aureus Selectivity Index (SI): numeric value; for MIC80: Staphylococcus aureus, ATCC43300, read-out: MIC80 S. aureus
[8] = tested on: Escherichia coli (ATCC 25922); assay: Antibacterial MIC, broth microdilution (CLSI); assay type: cell-based; conditions: Escherichia coli, ATCC25922; read-out: MIC80 E. coli
T. vaginalis = assay: Trichomonas resorufin assay; assay type: cell-based; conditions: for T. vaginalis Selectivity Indices, Group: SI, IC50 (μM)/IC50 (μM), HEK293 cytotoxicity
[9] = tested on: SARS-CoV-2 (hCoV-19/Australia/VIC01/2020); assay: SARS-CoV-2 microplaque inhibition assay in Vero-E6 cells; assay type: cell-based; conditions: SI, IC50 (μM)/IC50 (μM); HEK293 cytotoxicity; Alkyl Amidines and NH Pyrroles
[10] = SI, IC50 (μM)/MIC99 (μg/mL), HEK293 cytotoxicity
[11] = SI, IC50 (μM)/MIC99 (μg/mL), HEK293 cytotoxicity, numeric value

Compound | % Normalised Fluorescence with polyAU RNA [1] | % Normalised Fluorescence with gDNA [2] | IC50 (T. evansi AntTat 3/3) | MIC80 [4] | MIC99 [5] | MIC99 (C. neoformans (F10025)) | IC50 (T. equiperdum) | MIC99 [6] | MIC80 [7] | MIC80 [8] | further results
Cn1cc(NC(=O)c2ccc(/C=C/c3cnc4ccccc4c3)cc2)cc1C(=O)Nc1c[nH]c(C(=O)NCCC(=N)N)c1 [IIIa2, (E)-N-(5-((3-amino-3-iminopropyl)carbamoyl)-1H-pyrrol-3-yl)-1-methyl-4-(4-(2-(quinolin-3-yl)vinyl)benzamido)-1H-pyrrole-2-carboxamide] | 21% | 17% | 10 to 100 nM | > 100 µM | < 5 µg/mL | < 5 µg/mL | 10 to 100 nM | 5 to 25 µg/mL (≈ 8.7 to 43.5 µM) | < 5 µM | > 100 µM | MIC99 [3]: 25 to 50 µg/mL (≈ 43.5 to 87 µM); MIC99 (Candida auris (H.17.157)): 5 to 25 µg/mL (≈ 8.7 to 43.5 µM); C. auris Selectivity Indices, Group (Candida auris (H.17.157); [10]): C (Group C 1 < SI <= 3); C. auris Selectivity Index (SI) (Candida auris (H.17.157); [11]): 3; C. glabrata Selectivity Indices, Group [5, 10]: C (Group C 20 < SI <= 50); C. glabrata Selectivity Index (SI) [5, 11]: 47; S. aureus Selectivity Indices, Group ([7]; Alkyl Amidines and NH Pyrroles): D (D: SI > 10); S. aureus Selectivity Index (SI) [7]: 11
Cn1cc(NC(=O)c2ccc(/C=C/c3ccc4nonc4c3)cc2)cc1C(=O)Nc1c[nH]c(C(=O)NCCN2CCOCC2)c1 [IIIb1, (E)-4-(4-(2-(benzo[c][1,2,5]oxadiazol-5-yl)vinyl)benzamido)-1-methyl-N-(5-((2-morpholinoethyl)carbamoyl)-1H-pyrrol-3-yl)-1H-pyrrole-2-carboxamide] | 30% | 47% | 10 to 100 nM | > 100 µM |  |  | 10 to 100 nM |  | 5 to 25 µM (≈ 3.04 to 15.2 µg/mL) | > 100 µM | 
Cn1cc(NC(=O)c2ccc(/C=C/c3cnc4ccccc4c3)cc2)cc1C(=O)Nc1c[nH]c(C(=O)NCCN2CCOCC2)c1 [IIIb4, (E)-1-methyl-N-(5-((2-morpholinoethyl)carbamoyl)-1H-pyrrol-3-yl)-4-(4-(2-(quinolin-3-yl)vinyl)benzamido)-1H-pyrrole-2-carboxamide] | 86% | 37% | 10 to 100 nM | > 100 µM | > 50 µg/mL | > 50 µg/mL | 10 to 100 nM | > 50 µg/mL | < 5 µM | > 100 µM | 
O=C(Nc1c[nH]c(C(=O)Nc2c[nH]c(C(=O)NCCN3CCOCC3)c2)c1)c1ccc(/C=C/c2cnc3ccccc3c2)cc1 [IIIb5, (E)-N-(2-morpholinoethyl)-4-(4-(4-(2-(quinolin-3-yl)vinyl)benzamido)-1H-pyrrole-2-carboxamido)-1H-pyrrole-2-carboxamide] | 59% | 49% | 10 to 100 nM | > 100 µM | > 50 µg/mL | > 50 µg/mL | 10 to 100 nM | > 50 µg/mL | < 5 µM | > 100 µM | 
O=C(Nc1c[nH]c(C(=O)Nc2c[nH]c(C(=O)NCCN3CCOCC3)c2)c1)c1ccc(/C=C/c2ccc3nonc3c2)cc1 [IIIb6, (E)-4-(4-(2-(benzo[c][1,2,5]oxadiazol-5-yl)vinyl)benzamido)-N-(5-((2-morpholinoethyl)carbamoyl)-1H-pyrrol-3-yl)-1H-pyrrole-2-carboxamide] | 53% | 84% | 100 to 1000 nM | > 100 µM |  |  | 10 to 100 nM |  | 25 to 100 µM (≈ 14.9 to 59.5 µg/mL) | > 100 µM | 
Cn1cc(NC(=O)c2cc(NC(=O)c3ccc(/C=C/c4ccc5nonc5c4)cc3)c[nH]2)cc1C(=O)NCCN1CCOCC1 [IIIb9, (E)-4-(4-(4-(2-(benzo[c][1,2,5]oxadiazol-5-yl)vinyl)benzamido)-1H-pyrrole-2-carboxamido)-1-methyl-N-(2-morpholinoethyl)-1H-pyrrole-2-carboxamide] | 30% | 55% | 100 to 1000 nM | 5 to 25 µM (≈ 3.04 to 15.2 µg/mL) |  |  | 10 to 100 nM |  | 5 to 25 µM (≈ 3.04 to 15.2 µg/mL) | > 100 µM | 
Cn1cc(NC(=O)c2cc(NC(=O)c3ccc(/C=C/c4cnc5ccccc5c4)cc3)cn2C)cc1C(N)=O [IVa1, (E)-N-(5-carbamoyl-1-methyl-1H-pyrrol-3-yl)-1-methyl-4-(4-(2-(quinolin-3-yl)vinyl)benzamido)-1H-pyrrole-2-carboxamide] | 65% | 41% | 100 to 1000 nM | < 5 µM |  |  | 100 to 1000 nM |  | < 5 µM | > 100 µM | E. faecalis Selectivity Indices, Group ([4]; Amides): C (Group: C, 1.5 < SI <= 5); E. faecalis Selectivity Index (SI) [4]: 3; S. aureus Selectivity Indices, Group ([7]; Amides): B (Group B: 1.4 < SI <= 3)
CNC(=O)c1cc(NC(=O)c2cc(NC(=O)c3ccc(/C=C/c4cnc5ccccc5c4)cc3)cn2C)cn1C [IVa2, (E)-N,1-dimethyl-4-(1-methyl-4-(4-(2-(quinolin-3-yl)vinyl)benzamido)-1H-pyrrole-2-carboxamido)-1H-pyrrole-2-carboxamide] | 73% | 29% | 100 to 1000 nM | < 5 µM |  |  | 100 to 1000 nM |  | < 5 µM | > 100 µM | E. faecalis Selectivity Indices, Group ([4]; Amides): D (Group D: SI > 5); E. faecalis Selectivity Index (SI) [4]: 10; S. aureus Selectivity Indices, Group ([7]; Amides): C (Group C: SI > 3); S. aureus Selectivity Index (SI) [7]: 4
Cn1cc(NC(=O)c2cc(NC(=O)c3ccc(/C=C/c4cnc5ccccc5c4)cc3)cn2C)cc1C(=O)NCCC1CCCCC1 [IVa3, (E)-N-(2-cyclohexylethyl)-1-methyl-4-(1-methyl-4-(4-(2-(quinolin-3-yl)vinyl)benzamido)-1H-pyrrole-2-carboxamido)-1H-pyrrole-2-carboxamide] |  |  | 100 to 1000 nM | > 100 µM |  |  | 100 to 1000 nM |  | 25 to 100 µM (≈ 15.7 to 62.9 µg/mL) | > 100 µM | 
CCCCCCCCCC[N+](C)(C)CCNC(=O)c1cc(NC(=O)c2cc(NC(=O)c3ccc(/C=C/c4cnc5ccccc5c4)cc3)cn2C)cn1C [Ic9, (E)-N,N-dimethyl-N-(2-(1-methyl-4-(1-methyl-4-(4-(2-(quinolin-3-yl)vinyl)benzamido)-1H-pyrrole-2-carboxamido)-1H-pyrrole-2-carboxamido)ethyl)decan-1-aminium] |  |  | 10 to 100 nM | 5 to 25 µM | > 50 µg/mL | 5 to 25 µg/mL | 100 to 1000 nM | > 50 µg/mL | < 5 µM | > 100 µM | MIC99 [3]: > 50 µg/mL; MIC99 (Candida auris (H.17.157)): > 50 µg/mL; E. faecalis Selectivity Indices, Group ([4]; Quaternary ammoniums): B (Group B: 0.7 < SI <= 2); IC50 (T. vaginalis; Trichomonas vaginalis, read-out: IC50 T. vaginalis): 5000 to 50000 nM; S. aureus Selectivity Indices, Group ([7]; Quaternary ammoniums): B (Group B: 2 < SI <= 5)
Cn1cc(NC(=O)c2cc(NC(=O)c3ccc(/C=C/c4cnc5ccccc5c4)cc3)cn2C)cc1C(=O)NCCN1CCOCC1 [Ref-3, (E)-1-methyl-4-(1-methyl-4-(4-(2-(quinolin-3-yl)vinyl)benzamido)-1H-pyrrole-2-carboxamido)-N-(2-morpholinoethyl)-1H-pyrrole-2-carboxamide, reference compound] |  |  |  |  |  |  |  |  |  |  | C. auris Selectivity Indices, Group (Candida auris (H.17.157); [10]): A (Group A: SI < 0.4); E. faecalis Selectivity Indices, Group ([4]; Alkyl Amidines and NH Pyrroles): A (Group A: SI < 3); E. faecalis Selectivity Indices, Group ([4]; Amides): A (Group A: SI < 0.4); C. glabrata Selectivity Indices, Group [5, 10]: A (Group A: SI < 12); T. vaginalis Selectivity Indices, Group (T. vaginalis; Alkyl Amidines and NH Pyrroles): A (Group A: SI < 8); T. vaginalis Selectivity Indices, Group (T. vaginalis; Amides): A (Group A: SI < 0.25); S. aureus Selectivity Indices, Group ([7]; Alkyl Amidines and NH Pyrroles): A (Group A: SI < 3); S. aureus Selectivity Indices, Group ([7]; Amides): A (Group A: SI < 1.4); SARS-CoV-2 Selectivity Indices, Group [9]: A (Group A: SI < 4.1)
